Assay results reported in patent US12391679B2, “Benzamide-substituted bicyclic imidazo- and pyrazolo-fused -pyridine, -pyrimide, and -pyridazine compounds for treatment of inflammatory diseases” (ONCO3R Therapeutics BV, priority 2019, dated 2025).
Read-outs that look alike come from different tables or passages of the source.

Assays:
SIK2 = molecular target: T1, SIK2 (Homo sapiens, UniProt Q9H0K1); experiment: ADP-Glo kinase assay, SIK2; assay type: biochemical
T1 construct: purchased ThermoFisher Scientific PV4792
Outline: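 Kinase reactions ran 120 min at room temperature after ATP addition to enzyme-substrate mix. Remaining ATP was depleted (40 min) and ADP converted to ATP for luciferase detection (30 min), signal rising with activity. Final 1% DMSO and 10 μM staurosporine served as negative and positive controls.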

[1] = tested on: LPS-induced TNFα in monocytes; experiment: Monocytes assay: LPS-triggered TNFα (ELISA); assay type: cell-based, human; conditions: LPS-triggered TNFα inhibition
Outline: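 TNFα secretion was triggered with 200 ng/mL LPS for 4 h in human blood CD14+ monocytes after 1 h compound pretreatment at 37 °C, with 0.2% final DMSO. Supernatants were analysed by streptavidin-HRP/luminol ELISA, and percentage inhibition at each concentration was derived relative to control wells.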

T1 sequence (Q9H0K1 whole entry): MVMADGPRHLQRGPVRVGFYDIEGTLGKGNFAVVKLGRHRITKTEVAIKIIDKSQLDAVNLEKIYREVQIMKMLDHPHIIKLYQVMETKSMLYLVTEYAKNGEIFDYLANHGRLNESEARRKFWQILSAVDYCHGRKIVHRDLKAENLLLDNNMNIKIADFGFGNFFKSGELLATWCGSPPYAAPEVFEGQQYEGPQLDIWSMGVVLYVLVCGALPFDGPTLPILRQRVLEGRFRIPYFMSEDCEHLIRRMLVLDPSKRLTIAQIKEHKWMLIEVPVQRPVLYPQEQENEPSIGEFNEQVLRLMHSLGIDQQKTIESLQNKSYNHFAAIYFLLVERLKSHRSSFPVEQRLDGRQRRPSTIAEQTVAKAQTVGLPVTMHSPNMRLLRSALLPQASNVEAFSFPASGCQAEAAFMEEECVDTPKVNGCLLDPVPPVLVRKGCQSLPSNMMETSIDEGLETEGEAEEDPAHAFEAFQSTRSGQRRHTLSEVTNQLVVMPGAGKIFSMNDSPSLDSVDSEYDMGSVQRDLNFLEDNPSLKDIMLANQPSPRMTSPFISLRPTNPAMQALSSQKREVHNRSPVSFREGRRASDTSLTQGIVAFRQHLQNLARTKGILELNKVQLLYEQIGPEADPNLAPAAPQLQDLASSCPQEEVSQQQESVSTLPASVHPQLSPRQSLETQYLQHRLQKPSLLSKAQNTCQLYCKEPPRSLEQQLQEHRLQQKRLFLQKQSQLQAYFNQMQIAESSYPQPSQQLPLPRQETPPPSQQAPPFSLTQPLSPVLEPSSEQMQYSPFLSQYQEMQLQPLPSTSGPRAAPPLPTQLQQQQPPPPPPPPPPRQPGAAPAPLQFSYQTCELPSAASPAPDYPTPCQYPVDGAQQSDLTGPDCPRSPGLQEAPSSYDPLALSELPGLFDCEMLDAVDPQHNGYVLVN

SMILES: COc1cc(-c2cnc3cc(C(C)(C)C#N)ccn23)cc(OC)c1C(=O)NC1CC1 [Cpd 28, 4-[7-(1-cyano-1-methyl-ethyl)imidazo[1,2-a]pyridin-3-yl]-N-cyclopropyl-2,6-dimethoxy-benzamide]
- IC50 (SIK2): > 500 nM
- EC50 ([1]; Homo sapiens, Monocyte): 100 to 1000 nM

SMILES: COc1cc(-c2cnc3cc(C(C)(C)C#N)ccn23)cc(OC(F)F)c1C(=O)NC1CC1 [Cpd 19, 4-[7-(1-cyano-1-methyl-ethyl)imidazo[1,2-a]pyridin-3-yl]-N-cyclopropyl-2-(difluoromethoxy)-6-methoxy-benzamide]
- IC50 (SIK2): > 500 nM
- EC50 ([1]; Homo sapiens, Monocyte): 100 to 1000 nM

SMILES: COCC(C)(C#N)c1ccn2c(-c3cc(OC)c(C(=O)NC4CC4)c(OC(F)F)c3)cnc2c1 (stereo not drawn) [Cpd 195, 4-[7-(1-cyano-2-methoxy-1-methyl-ethyl)imidazo[1,2-a]pyridin-3-yl]-N-cyclopropyl-2-(difluoromethoxy)-6-methoxy-benzamide]
- IC50 (SIK2): > 500 nM
- EC50 ([1]; Homo sapiens, Monocyte): 100 to 1000 nM

SMILES: COc1cc(-c2cnc3cc([C@@](C)(O)C4CC4)ccn23)cc(OC(F)F)c1C(=O)NC1CC1 (single isomer, unassigned) [Cpd 163, N-cyclopropyl-4-[7-(1-cyclopropyl-1-hydroxy-ethyl)imidazo[1,2-a]pyridin-3-yl]-2-(difluoromethoxy)-6-methoxy-benzamide]
- IC50 (SIK2; ADP-Glo, AMARA 45 μM, 5 μM ATP, 120 min, average IC50): > 500 nM
- EC50 [1]: 100 to 1000 nM

SMILES: COc1cc(-c2cnn3cc(C4COC4)ccc23)cc(OC(F)F)c1C(=O)N[C@@H]1C[C@@H]1F [Cpd 218, 2-(difluoromethoxy)-N-[(1R,2S)-2-fluorocyclopropyl]-6-methoxy-4-[6-(oxetan-3-yl)pyrazolo[1,5-a]pyridin-3-yl]benzamide]
- IC50 (SIK2): 10 to 100 nM
- EC50 ([1]; Homo sapiens, Monocyte): 0.1 to 100 nM

SMILES: COc1cc(-c2cnc3cc(C4(C#N)CC4)ccn23)cc(OC(F)F)c1C(=O)NC1CC1 [Cpd 33, 4-[7-(1-cyanocyclopropyl)imidazo[1,2-a]pyridin-3-yl]-N-cyclopropyl-2-(difluoromethoxy)-6-methoxy-benzamide]
- IC50 (SIK2): 10 to 100 nM
- EC50 ([1]; Homo sapiens, Monocyte): 0.1 to 100 nM

SMILES: COc1cc(-c2cnc3cc(C(C)(C)C(C)O)ccn23)cc(OC(F)F)c1C(=O)NC1CC1 (stereo not drawn) [Cpd 172, N-cyclopropyl-2-(difluoromethoxy)-4-[7-(2-hydroxy-1,1-dimethyl-propyl)imidazo[1,2-a]pyridin-3-yl]-6-methoxy-benzamide]
- IC50 (SIK2): > 500 nM
- EC50 ([1]; Homo sapiens, Monocyte): 100 to 1000 nM

SMILES: COc1cc(-c2cnc3cc(C4CCOCC4)c(F)cn23)cc(OC(F)F)c1C(=O)NC1CC1 [Cpd 166, N-cyclopropyl-2-(difluoromethoxy)-4-(6-fluoro-7-tetrahydropyran-4-yl-imidazo[1,2-a]pyridin-3-yl)-6-methoxy-benzamide]
- IC50 (SIK2): 100 to 500 nM
- EC50 ([1]; Homo sapiens, Monocyte): 100 to 1000 nM

SMILES: COc1cc(-c2cnc3cc(C4(F)COC4)ccn23)cc(OC(F)F)c1C(=O)N[C@@H]1C[C@@H]1F [Cpd 224, 2-(difluoromethoxy)-N-[(1R,2S)-2-fluorocyclopropyl]-4-[7-(3-fluorooxetan-3-yl)imidazo[1,2-a]pyridin-3-yl]-6-methoxy-benzamide]
- IC50 (SIK2): 10 to 100 nM
- EC50 ([1]; Homo sapiens, Monocyte): 100 to 1000 nM

SMILES: COc1cc(-c2cnc3cc(C(C)(C)CN)ccn23)cc(OC(F)F)c1C(=O)NC1CC1 [Cpd 93, 4-[7-(2-amino-1,1-dimethyl-ethyl)imidazo[1,2-a]pyridin-3-yl]-N-cyclopropyl-2-(difluoromethoxy)-6-methoxy-benzamide]
- IC50 (SIK2): > 500 nM
- EC50 ([1]; Homo sapiens, Monocyte): 100 to 1000 nM

SMILES: COc1cc(-c2cnc3cc(C(C)(C)C#N)ccn23)cc(OC(F)F)c1C(=O)N[C@@H]1C[C@@H]1F [Cpd 79, 4-[7-(1-cyano-1-methyl-ethyl)imidazo[1,2-a]pyridin-3-yl]-2-(difluoromethoxy)-N-[(1R,2S)-2-fluorocyclopropyl]-6-methoxy-benzamide]
- IC50 (SIK2): 100 to 500 nM
- EC50 ([1]; Homo sapiens, Monocyte): 0.1 to 100 nM

SMILES: COc1cc(-c2cnc3cc(C4CN(C(C)=O)C4)ccn23)cc(OC(F)F)c1C(=O)NC1CC1 [Cpd 63, 4-[7-(1-acetylazetidin-3-yl)imidazo[1,2-a]pyridin-3-yl]-N-cyclopropyl-2-(difluoromethoxy)-6-methoxy-benzamide]
- IC50 (SIK2): 10 to 100 nM
- EC50 ([1]; Homo sapiens, Monocyte): 100 to 1000 nM

SMILES: COc1cc(-c2cnc3cc(C(C)(C)C#N)ccn23)cc(OC(F)F)c1C(=O)NCC(F)F [Cpd 70, 4-[7-(1-cyano-1-methyl-ethyl)imidazo[1,2-a]pyridin-3-yl]-N-(2,2-difluoroethyl)-2-(difluoromethoxy)-6-methoxy-benzamide]
- IC50 (SIK2): > 500 nM
- EC50 ([1]; Homo sapiens, Monocyte): 100 to 1000 nM

SMILES: CC[C@](C)(O)c1ccn2c(-c3cc(OC)c(C(=O)NC4CC4)c(OC(F)F)c3)cnc2c1 (single isomer, unassigned) [Cpd 164, N-cyclopropyl-2-(difluoromethoxy)-4-[7-(1-hydroxy-1-methyl-propyl)imidazo[1,2-a]pyridin-3-yl]-6-methoxy-benzamide]
- IC50 (SIK2): > 500 nM
- EC50 ([1]; Homo sapiens, Monocyte): 100 to 1000 nM

SMILES: COc1cc(-c2cnc3cc(C4CCCN(C(=O)OC(C)(C)C)C4)ccn23)cc(OC(F)F)c1C(=O)NC1CC1 (stereo not drawn) [Cpd 64, tert-butyl 3-[3-[4-(cyclopropylcarbamoyl)-3-(difluoromethoxy)-5-methoxy-phenyl]imidazo[1,2-a]pyridin-7-yl]piperidine-1-carboxylate]
- IC50 (SIK2): 100 to 500 nM
- EC50 ([1]; Homo sapiens, Monocyte): 100 to 1000 nM

SMILES: COc1cc(-c2cnc3cc([C@@](C)(O)C4CC4)ccn23)cc(OC(F)F)c1C(=O)NC1CC1 (single isomer, unassigned) [Cpd 162, N-cyclopropyl-4-[7-(1-cyclopropyl-1-hydroxy-ethyl)imidazo[1,2-a]pyridin-3-yl]-2-(difluoromethoxy)-6-methoxy-benzamide]
- IC50 (SIK2): > 500 nM
- EC50 ([1]; Homo sapiens, Monocyte): 100 to 1000 nM

SMILES: COC(=O)C1(c2ccn3c(-c4cc(OC)c(C(=O)NC5CC5)c(OC(F)F)c4)cnc3c2)CC1 [Cpd 113, methyl 1-[3-[4-(cyclopropylcarbamoyl)-3-(difluoromethoxy)-5-methoxy-phenyl]imidazo[1,2-a]pyridin-7-yl]cyclopropanecarboxylate]
- IC50 (SIK2): > 500 nM
- EC50 ([1]; Homo sapiens, Monocyte): 100 to 1000 nM

SMILES: COc1cc(-c2cnc3cc(C(C)(C)C#N)cnn23)cc(OC(F)F)c1C(=O)N[C@@H]1C[C@@H]1F [Cpd 228, 4-[7-(1-cyano-1-methyl-ethyl)imidazo[1,2-b]pyridazin-3-yl]-2-(difluoromethoxy)-N-[(1R,2S)-2-fluorocyclopropyl]-6-methoxy-benzamide]
- IC50 (SIK2): 100 to 500 nM
- EC50 ([1]; Homo sapiens, Monocyte): 100 to 1000 nM

SMILES: COc1cc(-c2cnn3cc(C4(C#N)CCOCC4)ccc23)cc(OC(F)F)c1C(=O)NC1CC1 [Cpd 237, 4-[6-(4-cyanotetrahydropyran-4-yl)pyrazolo[1,5-a]pyridin-3-yl]-N-cyclopropyl-2-(difluoromethoxy)-6-methoxy-benzamide]
- IC50 (SIK2): > 500 nM
- EC50 ([1]; Homo sapiens, Monocyte): 100 to 1000 nM

SMILES: COc1cc(-c2cnc3cc(C(C)(C)CN4CCOCC4)ccn23)cc(OC(F)F)c1C(=O)NC1CC1 [Cpd 160, N-cyclopropyl-2-(difluoromethoxy)-4-[7-(1,1-dimethyl-2-morpholino-ethyl)imidazo[1,2-a]pyridin-3-yl]-6-methoxy-benzamide]
- IC50 (SIK2): > 500 nM
- EC50 ([1]; Homo sapiens, Monocyte): 100 to 1000 nM

SMILES: COc1cc(-c2cnc3cc(C(F)(F)CO)ccn23)cc(OC(F)F)c1C(=O)NC1CC1 [Cpd 136, N-cyclopropyl-4-[7-(1,1-difluoro-2-hydroxy-ethyl)imidazo[1,2-a]pyridin-3-yl]-2-(difluoromethoxy)-6-methoxy-benzamide]
- IC50 (SIK2): 100 to 500 nM
- EC50 ([1]; Homo sapiens, Monocyte): 100 to 1000 nM
